Measured values: PMC7700423, “Differential Effects of 1α,25-Dihydroxyvitamin D3 on the Expressions and Functions of Hepatic CYP and UGT Enzymes and Its Pharmacokinetic Consequences In Vivo” (Pharmaceutics, 2020)

Legend:
[1] = Pharmacokinetics of BUP and HBUP after intravenous BUP in rats; format: in vivo, rat; details: for CL renal: plasma and urine; for AUC: n = 6-7; for Vd: read-out: Vss; for Ae0-24h: urine 0-24 h; for Tmax: median (range)
Description: Male Sprague-Dawley (SD) rats (8 weeks, 260–280 g) were purchased from Nara Biotech Co. (Seoul, Korea). Animals were maintained in cages under controlled conditions under a 12-h dark/light cycle with free access to food and tap water, acclimated for at least five days in the laboratory before experiments, and allocated to a control group or 1,25(OH)2D3-treated group. The 1,25(OH)2D3 dosing solution was prepared by diluting 1,25(OH)2D3 in ethanol with 5 mL of corn oil (2.56 nmol/mL of final concentration). The dosing solution for the control group was prepared but the 1,25(OH)2D3 was omitted. The dosing solutions were administered intraperitoneally to rats at a dose of 1 mL/kg/day (2.56 nmol/kg/day as 1,25(OH)2D3) over four consecutive days. On the fifth day, rats were used for pharmacokinetic study.
In vivo pharmacokinetic animal experiments were accomplished according to the Guide for the Care and Use of Laboratory Animals issued by the National Institute of Health, as described previously. Before starting the animal studies, all experimental protocols were reviewed and approved by the Animal Care and Use Committee of Gachon University (Approval no. GIACUC-R2019020; approved on July 1st, 2019). SD male rats (8–9 weeks, 250–300 g, Nara Biotech Co., Seoul, South Korea) had free access to food and water, acclimatized and maintained in the room under a 12-h light/dark cycle for a week before the study. After pretreatment with 1,25(OH)2D3 for 4 continuous days, the rats in the control and 1,25(OH)2D3 groups were anesthetized with Zoletil® (Vibrac, TX, USA) (10 mg/kg i.m.) and then the femoral vein and artery were cannulated with polyethylene tubing (Clay Adams, NJ, USA) for drug administration and blood sampling, respectively, as described previously. The pharmacokinetic experiment was initiated by drug administration after the rats were recovered from anesthesia. […] Approximately 100 μL of blood was collected via the femoral artery at 0, 1, 5, 15, 30, 60, 120, 180, 240, 360, 480, and 600 min after the drug administration. […] Blood samples were collected at 0, 1, 5, 15, 30, 60, 90, 120, 180, 240, 360, and 480 min later and immediately centrifuged at 14,000× g for 15 min at 4 °C. For compensation of fluid loss, a same volume of saline was intravenously provided after each sample collection. Plasma was then separated from whole blood cells and stored at −20 °C for further analysis. Urine samples were collected 0–4, 4–8, and 8–24 h after drug administration. The collected urine samples were diluted with distilled deionized water (DDW) 20-fold prior to LC-MS/MS analysis. […] The weighted tissues were homogenized on ice by an electric homogenizer following adding 2-fold volume of PBS. The homogenates were stored before LC-MS/MS analysis.
(§1) Moreover, CLNR was calculated to subtract CLR from CL.

[2] = Pharmacokinetics of TOL and HTOL after intravenous TOL in rats; format: in vivo, rat; details: for Tmax: median (range); for Ae0-24h: urine 0-24 h; for Vd: read-out: Vss
Description: (§2) Male Sprague-Dawley (SD) rats (8 weeks, 260–280 g) were purchased from Nara Biotech Co. (Seoul, Korea). […] The dosing solution for the control group was prepared but the 1,25(OH)2D3 was omitted. […] On the fifth day, rats were used for pharmacokinetic study.
(§3) In vivo pharmacokinetic animal experiments were accomplished according to the Guide for the Care and Use of Laboratory Animals issued by the National Institute of Health, as described previously. […] After pretreatment with 1,25(OH)2D3 for 4 continuous days, the rats in the control and 1,25(OH)2D3 groups were anesthetized with Zoletil® (Vibrac, TX, USA) (10 mg/kg i.m.) and then the femoral vein and artery were cannulated with polyethylene tubing (Clay Adams, NJ, USA) for drug administration and blood sampling, respectively, as described previously. The pharmacokinetic experiment was initiated by drug administration after the rats were recovered from anesthesia. […] Approximately 100 μL of blood was collected via the femoral artery at 0, 1, 5, 15, 30, 60, 120, 180, 240, 360, 480, and 600 min after the drug administration. […] For compensation of fluid loss, a same volume of saline was intravenously provided after each sample collection. Plasma was then separated from whole blood cells and stored at −20 °C for further analysis. […] The collected urine samples were diluted with distilled deionized water (DDW) 20-fold prior to LC-MS/MS analysis. […] The weighted tissues were homogenized on ice by an electric homogenizer following adding 2-fold volume of PBS. The homogenates were stored before LC-MS/MS analysis.
as §1

[3] = Tissue distribution of TOL and HTOL in rats; format: in vivo, rat; details: for Tissue to plasma concentration ratio (Kp), Liver: n = 4-6
Description: as §2, §3

[4] = target: T1, Cyp2c11 (Rattus norvegicus, UniProt P08683); assay: Tolbutamide 4-hydroxylation (HTOL formation) in rat liver microsomes; details: for CLint: n = 3
T1 sequence (P08683 1-500): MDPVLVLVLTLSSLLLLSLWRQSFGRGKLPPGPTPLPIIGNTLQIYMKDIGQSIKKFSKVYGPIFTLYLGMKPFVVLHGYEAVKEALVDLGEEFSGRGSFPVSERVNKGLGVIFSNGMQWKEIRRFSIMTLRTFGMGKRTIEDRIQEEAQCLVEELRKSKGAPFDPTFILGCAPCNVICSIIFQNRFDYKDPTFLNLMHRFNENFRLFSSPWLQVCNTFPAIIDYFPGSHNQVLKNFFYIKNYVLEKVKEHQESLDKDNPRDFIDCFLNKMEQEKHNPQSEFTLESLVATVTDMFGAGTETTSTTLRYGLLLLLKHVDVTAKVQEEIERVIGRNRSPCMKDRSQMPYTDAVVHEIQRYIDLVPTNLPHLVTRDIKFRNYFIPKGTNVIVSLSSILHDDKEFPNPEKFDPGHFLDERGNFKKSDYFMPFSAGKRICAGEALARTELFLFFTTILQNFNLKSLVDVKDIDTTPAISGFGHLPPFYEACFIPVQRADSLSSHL

[5] = i.v. 5 mg/kg BUP, 1,25(OH)2D3-treated rats
[6] = male, Sprague-Dawley, rat, plasma, iv, 5 mg/kg, i.v. 5 mg/kg BUP, 1,25(OH)2D3-treated rats
[7] = male, Sprague-Dawley, rat, plasma, iv, 5 mg/kg, i.v. 5 mg/kg BUP, control rats
[8] = formed metabolite, i.v. 2 mg/kg TOL, 1,25(OH)2D3-treated rats
[9] = formed metabolite, i.v. 2 mg/kg TOL, control rats
[10] = i.v. 2 mg/kg TOL, 1,25(OH)2D3-treated rats
[11] = 8 h after i.v. 2 mg/kg TOL, 1,25(OH)2D3-treated rats
[12] = 8 h after i.v. 2 mg/kg TOL, control rats
[13] = male, Sprague-Dawley, rat, plasma, iv, 2 mg/kg, i.v. 2 mg/kg TOL, 1,25(OH)2D3-treated rats
[14] = male, Sprague-Dawley, rat, plasma, iv, 2 mg/kg, i.v. 2 mg/kg TOL, control rats

CC(NC(C)(C)C)C(=O)c1cccc(Cl)c1 (stereo not drawn) [BUP, bupropion]
Renal clearance as portion of total clearance ([1]; 1,25(OH)2D3-treated rats): 1.92% | Renal clearance as portion of total clearance ([1]; control rats): 0.7% | CLNR [1, 5]: 53.55 ± 13.02 mL/min/kg | CLNR ([1]; i.v. 5 mg/kg BUP, control rats): 93.08 ± 13.73 mL/min/kg | CL renal ([1]; male, Sprague-Dawley, rat, iv, 5 mg/kg, i.v. 5 mg/kg BUP, 1,25(OH)2D3-treated rats): 1.05 ± 0.407 mL/min/kg | CL renal ([1]; male, Sprague-Dawley, rat, iv, 5 mg/kg, i.v. 5 mg/kg BUP, control rats): 0.662 ± 0.635 mL/min/kg | MRT [1, 6]: 1.47 h | clearance [1, 6]: 54.6 ± 13.4 mL/min/kg | half-life [1, 6]: 2.24 ± 0.812 h | AUC ([1]; male, Sprague-Dawley, rat, plasma, iv, 5 mg/kg, i.v. 5 mg/kg BUP, 1,25(OH)2D3-treated rats, read-out: AUC (converted)): 1610 ng·h/mL | Vd [1, 6]: 5.4 ± 1.87 L/kg | MRT [1, 7]: 1.19 h | clearance [1, 7]: 93.6 ± 14.2 mL/min/kg | half-life [1, 7]: 2.59 ± 0.432 h | AUC ([1]; male, Sprague-Dawley, rat, plasma, iv, 5 mg/kg, i.v. 5 mg/kg BUP, control rats, read-out: AUC (converted)): 906 ng·h/mL | Vd [1, 7]: 7.82 ± 1.95 L/kg | Ae0-24h [1, 5]: 1.791 ± 0.031 % of dose | Ae0-24h ([1]; i.v. 5 mg/kg BUP, control rats): 0.719 ± 0.613 % of dose

C[C@H]1NC(C)(C)CO[C@]1(O)c1cccc(Cl)c1 [HBUP, hydroxybupropion]
CLR [1, 5]: 0.077 ± 0.031 mL/min/kg | Cmax [1, 5]: 68 ± 21 ng/mL | t1/2 [1, 5]: 3.283 ± 0.903 h | AUC [1, 5]: 329.5 ± 151 ng·h/mL | CLR ([1]; i.v. 5 mg/kg BUP, control rats): 0.222 ± 0.124 mL/min/kg | Cmax ([1]; i.v. 5 mg/kg BUP, control rats): 46 ± 32 ng/mL | t1/2 ([1]; i.v. 5 mg/kg BUP, control rats): 2.673 ± 0.627 h | AUC ([1]; i.v. 5 mg/kg BUP, control rats): 76.83 ± 31.63 ng·h/mL | Tmax [1, 5]: 15 (15–60) min | Tmax ([1]; i.v. 5 mg/kg BUP, control rats): 15 min | Ae0-24h [1, 5]: 0.026 ± 0.008 % of dose | Ae0-24h ([1]; i.v. 5 mg/kg BUP, control rats): 0.015 ± 0.007 % of dose

CCCCNC(=O)NS(=O)(=O)c1ccc(CO)cc1 [HTOL, 4-hydroxytolbutamide]
AUC [2, 8]: 151.9 ± 52.0 µg·min/mL | CLR [2, 8]: 0.873 ± 0.134 mL/min/kg | AUC [2, 9]: 100.8 ± 65.2 µg·min/mL | CLR [2, 9]: 2.713 ± 0.570 mL/min/kg | Cmax [2, 10]: 207 ± 119 ng/mL | t1/2 [2, 10]: 10.5 ± 8.193 h | Cmax ([2]; i.v. 2 mg/kg TOL, control rats): 167 ± 67 ng/mL | t1/2 ([2]; i.v. 2 mg/kg TOL, control rats): 8.688 ± 8.317 h | Tmax [2, 10]: 120 (60–240) min | Tmax ([2]; i.v. 2 mg/kg TOL, control rats): 60 (15–120) min | Ae0-24h [2, 10]: 5.539 ± 2.305 % of dose | Ae0-24h ([2]; i.v. 2 mg/kg TOL, control rats): 9.356 ± 0.471 % of dose | Tissue to plasma concentration ratio (Kp), Brain [3, 11]: 0.019 ± 0.004 | Tissue to plasma concentration ratio (Kp), Heart [3, 11]: 0.252 ± 0.036 | Tissue to plasma concentration ratio (Kp), Kidney [3, 11]: 7.768 ± 0.014 | Tissue to plasma concentration ratio (Kp), Spleen [3, 11]: 0.163 ± 0.008 | Tissue to plasma concentration ratio (Kp), Liver [3, 11]: 0.657 ± 0.129 | Tissue to plasma concentration ratio (Kp), Brain [3, 12]: 0.020 ± 0.008 | Tissue to plasma concentration ratio (Kp), Heart [3, 12]: 0.175 ± 0.013 | Tissue to plasma concentration ratio (Kp), Kidney [3, 12]: 5.335 ± 1.127 | Tissue to plasma concentration ratio (Kp), Spleen [3, 12]: 0.137 ± 0.010 | Tissue to plasma concentration ratio (Kp), Liver [3, 12]: 0.831 ± 0.152

CCCCNC(=O)NS(=O)(=O)c1ccc(C)cc1 [TOL, tolbutamide]
CLNR [2, 10]: 0.206 ± 0.045 mL/min/kg | CLNR ([2]; i.v. 2 mg/kg TOL, control rats): 0.189 ± 0.030 mL/min/kg | clearance [2, 13]: 0.206 ± 0.045 mL/min/kg | half-life [2, 13]: 9.4 ± 3.46 h | AUC ([2]; male, Sprague-Dawley, rat, plasma, iv, 2 mg/kg, i.v. 2 mg/kg TOL, 1,25(OH)2D3-treated rats, n = 9-10, read-out: AUC (converted)): 10200 µg·min/mL | Vd [2, 13]: 0.153 ± 0.0195 L/kg | MRT [2, 14]: 11 h | clearance [2, 14]: 0.189 ± 0.027 mL/min/kg | half-life [2, 14]: 7.71 ± 2.56 h | AUC ([2]; male, Sprague-Dawley, rat, plasma, iv, 2 mg/kg, i.v. 2 mg/kg TOL, control rats, n = 9-10, read-out: AUC (converted)): 10800 µg·min/mL | Vd [2, 14]: 0.12 ± 0.0156 L/kg | CL renal ([2]; male, Sprague-Dawley, rat, urine and plasma, iv, 2 mg/kg): 0.000208 ± 0.000103 mL/min/kg | Ae0-24h [2, 10]: 0.024 ± 0.016 % of dose | Ae0-24h ([2]; i.v. 2 mg/kg TOL, control rats): 0.124 ± 0.059 % of dose | CLint ([4]; RLMs from 1,25(OH)2D3-treated rats): 0.89 ± 0.18 μL/min/mg protein | CLint ([4]; RLMs from control rats): 3.00 ± 0.63 μL/min/mg protein | CLint lower in 1,25(OH)2D3-treated rats than in controls ([4]; RLMs, p = 0.0051): 70%
